What was measured:
mice = assay: Effect on behaviour (Irwin method), side effects; type: in vivo
Experimental: The effect on behaviour was studied by a method derived from that of S. Irwin (Gordon Res. Conf. on Medicinal Chem., 133, 1959). The substances, suspended in 1% tragacanth mucilage, were orally administered via an intra-gastric probe to groups of 5 male mice fasted for 18 hours. The maximum tested dose was 3 000 mg/kg or 1 000 mg/kg, and smaller doses were tested if an effect has been observed.
Behaviour was studied, 2, 4, 6 and 24 hours after treatment. Observation was continued if symptoms persisted at that time. Deaths were recorded during the 14 days after treatment. The results are given in Table II, in which the numbers of the compounds are the same as the numbers given in column 1 of Table I.

[1] = Preventive effect of single dose: plasma glucose; type: in vivo, Sprague Dawley rats; conditions: for Plasma glucose, treated: 10 mg/kg oral
Experimental: (§1) 2.3. In vivo effects of a single dose of compound No. 2 (CP 3192 AR) on the variation in the proportion of plasma glucose and the accumulation of sorbitol in the crystalline lenses and sciatic nerves of diabetic rats.
(§2) 2.3.1. Preventive effect. CP 3192 AR was administered simultaneously with the induction of diabetes. The experiment was performed on 33 male Sprague Dawley rats weighing about 200 g.
(§3) At time 0 hours, 3 rats were sacrificed and used as non-diabetic controls. 30 fats fasted the previous day were made diabetic by an intraperitoneal injection of streptozotocin (75 mg/kg). A dose of 10 mg/kg of CP 3192 AR was simultaneously administered orally to 15 of the rats. The other 15 were given a placebo. 3 control rats and 3 rats treated with CP 3192 AR were sacrificed 2, 4, 8, 24 and 48 hours after induction of diabetes.
(§4) An estimate was made of the effects of the product on the proportion of plasma glucose and the sorbitol content of the crystalline lenses and sciatic nerves.

[2] = test system: accumulation of sorbitol in the sciatic nerves; assay: Inhibition of accumulation of sorbitol in sciatic nerves of diabetic rats; type: in vivo, Sprague Dawley rats; conditions: oral 25 mg/kg at 0, 7 and 24 h, sacrificed 27 h
Experimental: (§5) 2.1 Inhibition of accumulation of sorbitol in crystalline lenses and nerves of diabetic rats:
(§6) The effects of the products according to the invention on the proportion of plasma glucose and the accumulation of sorbitol in the crystalline lenses and sciatic nerves of rats made diabetic by streptozotocin were examined by the method of M. J. Peterson, et al (Metabolism, 28, 456-461 (1979)).
(§7) Fasted Sprague Dawley rats were made diabetic by intraperitoneal injection of streptozotocin (75 mg/kg). The product under test was orally administered at a dose of 25 mg/kg after 0, 7 and 24 hours. The rats were sacrificed 27 hours after induction of diabetes. The crystalline lenses and sciatic nerves were taken and preserved at -20° C. until analysed. The crystalline lenses and sciatic nerves were homogenized in water and the proteins were precipitated from ethanol. The precipitate was eliminated by centrifuging and the supernatant liquid was lyophylised. The sorbitol in the sample was determined by the method of B. Bjorkqvist (J. of Chromatograph, 218, 65-71 (1981)), adapted by A. Lenaers et al. (Arch. Intern. Physiol. Bioch., 91, B, 62-63 (1983)).
(§8) The sample was dissolved in pyridine containing galactitol as an internal standard. Derivatives were formed therefrom by phenylisocyanate during incubation for 1 hour at 60° C. The reaction was then stopped by adding methanol and the derivatives were separated and determined by HPLC.
(§9) The results are expressed as percentage inhibition of the accumulation of sorbitol, compared with the controls.

[3] = test system: accumulation of sorbitol in the crystalline lenses; assay: Inhibition of accumulation of sorbitol in crystalline lenses of diabetic rats; type: in vivo, Sprague Dawley rats
Experimental: as §5, §6, §7, §8, §9

[4] = test system: accumulation of sorbitol in the crystalline lenses; assay: Curative effect of single dose: sorbitol in crystalline lenses; type: in vivo, Sprague Dawley rats; conditions: for Accumulation of sorbitol in crystalline lenses, treated: 10 mg/kg oral
Experimental: 2.3.2. Curative effect: CP 3192 AR was administered 24 hours after induction of diabetes.
As before, the experiment was made on 33 male Sprague Dawley rats weighing about 200 g. The 33 rats, which had been fasted the previous day, were made diabetic by an intraperitoneal injection of streptozotocin (75 mg/kg).
24 hours after induction of diabetes, 3 rats were sacrificed and used as diabetic controls. A dose of 10 mg/kg of CP 3192 AR was orally administered to 15 rats whereas the other 15 were given the excipient without an active product. 3 control rats and 3 rats treated with CP 3192 AR were sacrificed 2, 4, 8, 24 and 48 hours after administration of the product.
Estimates were made of the effects of the product on the proportion of plasma glucose and the sorbitol content of the crystalline lenses and sciatic nerves of rats made diabetic by streptozotocin.

[5] = test system: accumulation of sorbitol in the crystalline lenses; assay: Preventive effect of single dose: sorbitol in crystalline lenses; type: in vivo, Sprague Dawley rats; conditions: for Accumulation of sorbitol in crystalline lenses, treated: 10 mg/kg oral
Experimental: as §1, §2, §3, §4

[6] = single dose 10 mg/kg, lenses and sciatic nerves

With CC(=O)OCN1C(=O)N(COC(C)=O)C2(C1=O)c1ccccc1-c1ccccc12 [Compound 2, bis-(1',3'-acetoxymethyl)-spiro-/fluorene-9,4'-imidazolidine/-2',5'-dione] the side effect observed (mice; dose of 3000 mg/kg) was “no side effect was observed”, the “MED (minimum dose at which a side effect is observed)” value (mice; mice, oral) was > 3 000 mg/kg and the “Plasma glucose, treated” value ([1]; 2 h) was 436 ± 45 mg/100 ml. The “Plasma glucose, treated” value ([1]; 4 h) was 359 ± 45 mg/100 ml, the “Plasma glucose, treated” value ([1]; 8 h) was 264 ± 73 mg/100 ml and the “Plasma glucose, treated” value ([1]; 24 h) was 485 ± 35 mg/100 ml. For the same compound, the “Plasma glucose, treated” value ([1]; 48 h) was 447 ± 34 mg/100 ml, the “effect on the proportion of plasma glucose” value ([1]; single oral dose 10 mg/kg) was “no effect” and the “Inhibition of accumulation of sorbitol in vivo, in sciatic nerves” value [2] was 85%. For the same compound, the “Inhibition of accumulation of sorbitol in vivo, crystalline lenses” value ([3]; oral 25 mg/kg at 0, 7 and 24 h, sacrificed 27 h) was 86%, the “inhibition of accumulation of sorbitol in crystalline lenses and sciatic nerves (in words)” value ([3]; oral 25 mg/kg, lenses and sciatic nerves) was “particularly active” and the “Accumulation of sorbitol in crystalline lenses, treated” value (“Accumulation of sorbitol … treated” for short) ([4]; 2 h after administration) was 103 ± 27 µg. For the same compound, the “Accumulation of sorbitol … treated” value ([4]; 4 h after administration) was 99 ± 5 µg, the “Accumulation of sorbitol … treated” value ([4]; 8 h after administration) was 125 ± 8 µg and the “Accumulation of sorbitol … treated” value ([4]; 24 h after administration, p <0.0005) was 73 ± 18 µg. For the same compound, the “Accumulation of sorbitol … treated” value ([4]; 48 h after administration, p < 0.05) was 142 ± 47 µg, the “accumulation of sorbitol in crystalline lenses (in words)” value ([4]; single dose 10 mg/kg) was “completely inhibits” and the duration of effect [4, 6] was ≥ 48 h. For the same compound, the “Accumulation of sorbitol … treated” value ([5]; 2 h) was 3 ± 0 µg, the “Accumulation of sorbitol … treated” value ([5]; 4 h, p < 0.005) was 6.3 ± 0.6 µg and the “Accumulation of sorbitol … treated” value ([5]; 8 h, p < 0.05) was 12.3 ± 4.0 µg. The “Accumulation of sorbitol … treated” value ([5]; 24 h, p < 0.05) was 52 ± 10.1 µg, the “Accumulation of sorbitol … treated” value ([5]; 48 h) was 92.7 ± 18.6 µg and the “duration of effect on sorbitol accumulation” value [5, 6] was “at least 48 hours”. The “onset of effect on sorbitol accumulation” value [5, 6] was “observed as soon as soribol began to accumulate”.
